According to US6764768B2, “Controlled release composition” (Arch Development Corporation, priority 2001, dated 2004):

Key:
[1] = system: Swiss 3T3 fibroblast cells; test: Adhesion and electrically or peptide-triggered release of cells on patterned RGD monolayer; type: cell-based
Experimental: The substrate was patterned into two regions that each presented the RGD peptide at a density of less than 0.1% mixed with tri(ethylene glycol) groups. The pattern was formed by applying an alkanethiol solution (corresponding to FIG. 5A) for 5 min to a gold-coated glass substrate, half of which was blocked with a polydimethylsiloxane mask. Following rinsing, the mask was removed, and the substrate was incubated in a solution of a second alkanethiol (corresponding to FIG. 5B) for 6 h. In all cases, the monolayers were formed from ethanolic solutions containing a mixture of an alkanethiol substituted with tri(ethylene glycol) and an alkanethiol substituted with either RGD or the RGD containing alkanethiol of the present invention, in a ratio of 999: 1. The two regions differed only in the linkage used to tether the peptides to the monolayer (C. Roberts, C. S. Chen, M. Mrksich, V. Martichonok, D. E. Ingber, G. M. Whitesides, J. Am. Chem. Soc. 1998, 120, 6548-6555; and B. T. Houseman, M. Mrksich, J. Org. Chem. 1998, 63, 7552-7555).
This substrate was placed into cell culture media and a suspension of Swiss 3T3 fibroblast cells was added. The Swiss Albino 3T3 cells (ATCC, Rockville, Md.) were grown in Dulbecco's Modified Eagle Medium (DMEM) containing 10% fetal bovine serum and penicillin/streptomycin. All cultures were maintained at 37° C. in a humidified 10% CO2 atmosphere. […]

streptavidin = test: SPR measurement of streptavidin association with the biotin-presenting monolayer; type: binding; conditions: biotin 140 μM mixed with streptavidin before introduction to the SAM
Source text: The following sequence was used to measure the association of proteins to the monolayers: buffer (phosphate buffered saline, pH 7.4) was flowed over the monolayer for three minutes to establish a baseline; a solution of protein in the same buffer was flowed over the surface for eight minutes to observe binding; buffer was again flowed for four minutes to quantitate the amount of protein that remained bound. […] (SPR measures the angle of light (θ) reflected from the backside of the gold substrate that is a minimum in intensity. Changes in this angle (Δθ) are linearly related to the index of refraction of the solution above the surface and therefore to the density of adsorbed protein (Δθof 0.10°=1 ng/mm^2). Experiments show a change in θ immediately following protein injection due to differences in refractive index between the two solutions.) The change in resonance angle (Δθ) after streptavidin was flowed over the substrate corresponds to a final protein density of 1.1 ng/mm^2. The protein remained irreversibly bound because of the high affinity of the streptavidin-biotin complex.
Electrochemistry was performed in buffered water (PBS, pH 7.4) using the gold substrate as the working electrode, a platinum wire as the counter electrode, and a Ag/AgCl/KCl reference electrode—prior to mounting the substrate in a cartridge for analysis by SPR. […]

Row | Compound | cells released from the surface by soluble peptide ([1]; 2 mM in fresh media, 37° C. for 20 minutes, after electrical treatment) | detachment of cells by soluble peptide prior to electrical treatment ([1]; patterned substrate, both regions, prior to electrical treatment) | binding of streptavidin to the SAM when streptavidin was mixed with biotin (streptavidin)
1 | Gly-Arg-Gly-Asp-Ser (GRGDS; printed: Gly-Arg-Gly-Asp-Ser) | greater than 95% | near complete detachment of cells from both regions | 
2 | O=C(O)CCCC[C@@H]1SC[C@@H]2NC(=O)N[C@@H]21 [biotin] |  |  | no binding of the protein to the surface
